These results are taken from US8088806B2 (Achillion Pharmaceuticals, Inc., priority 2005, dated 2012).

The test system of the test is HCV replicon. The test can be described thus: Replicon based assay of HCV replication inhibition (NPT ELISA). It is filed as cell-based, Hepatitis C virus. The following applies: Hepatitis C virus, Huh-7, 72 h, Table III; Huh-7 HCV replicon-containing cells, three days; read-out: Activity. Put shortly:
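NPT (neomycin phosphotransferase) content, proportional to replicon replication, quantified by capture ELISA on day four. Before that, replicon-bearing Huh-7 cells in G418-free screening medium were exposed three days at 37° C to compound, typically six doses from 10 to 0.03 micromolar, with equal DMSO across wells.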
(Replicon systems follow genome replication, usually without infectious particles.)
As to `CCCCCCCCOc1ccc(Nc2nc(-c3ccc4nccn4c3)cs2)cc1C(F)(F)F` [compound 673, N-(3-(trifluoromethyl)-4-(octyloxy)phenyl)-4-(H-imidazo[1,2-a]pyridin-6-yl)thiazol-2-amine], the EC50 is below 1 µM.
The same measure for `CCCCCCCCOc1ccc(Nc2nc(-c3cnc4ccc(C#N)cn34)cs2)cc1C(F)(F)F` [compound 674, 3-(2-(3-(trifluoromethyl)-4-(octyloxy)phenylamino)thiazol-4-yl)H-imidazo[1,2-a]pyridine-6-carbonitrile]: below 1 µM; for `CCCCCCC(C)Oc1ccc(Nc2nc(-c3cccnc3)cs2)cc1C(F)(F)F` (stereo not shown) [compound 675, N-(3-(trifluoromethyl)-4-(octan-2-yloxy)phenyl)-4-(pyridin-3-yl)thiazol-2-amine]: below 1 µM; for `CCCCCCC(C)Oc1ccc(Nc2nc(-c3ccc(NC(C)=O)nc3)cs2)cc1C(F)(F)F` (stereo not shown) [compound 676, N-(5-(2-(3-(trifluoromethyl)-4-(octan-2-yloxy)phenylamino)thiazol-4-yl)pyridin-2-yl)acetamide]: below 1 µM.
The same measure for `CCCCCCC(C)Oc1ccc(Nc2nc(-c3ccc(N)nc3)cs2)cc1C(F)(F)F` (stereo not shown) [compound 677, 5-(2-(3-(trifluoromethyl)-4-(octan-2-yloxy)phenylamino)thiazol-4-yl)pyridin-2-amine]: below 1 µM; for `CCCCCCCCOc1ccc(Nc2nc(-c3ccc(NC(C)=O)nc3)cs2)cc1C(F)(F)F` [compound 678, N-(5-(2-(3-(trifluoromethyl)-4-(octyloxy)phenylamino)thiazol-4-yl)pyridin-2-yl)acetamide]: below 1 µM; for `CCCCCCCCOc1ccc(Nc2nc(-c3ccc(N)nc3)cs2)cc1C(F)(F)F` [compound 679, 5-(2-(3-(trifluoromethyl)-4-(octyloxy)phenylamino)thiazol-4-yl)pyridin-2-amine]: below 1 µM.
As for `CCCC(CCC)Oc1ccc(Nc2nc(-c3cccnc3)cs2)cc1C(F)(F)F` [compound 680, N-(3-(trifluoromethyl)-4-(heptan-4-yloxy)phenyl)-4-(pyridin-3-yl)thiazol-2-amine], the EC50 is below 1 µM.
For the compound `CCCCCCCCOc1ccc(Nc2nc(-c3ncccn3)cs2)cc1C(F)(F)F` [compound 681, N-(3-(trifluoromethyl)-4-(octyloxy)phenyl)-4-(pyrimidin-2-yl)thiazol-2-amine], the EC50 is below 1 µM.
For `FC(F)(F)c1cc(Nc2nc(-c3cccnc3)cs2)ccc1OCCCc1ccccc1` [compound 682, N-(4-(3-phenylpropoxy)-3-(trifluoromethyl)phenyl)-4-(pyridin-3-yl)thiazol-2-amine], the EC50 is below 1 µM.
The same measure for `CCCCCCCCOc1cccc(Nc2nc(-c3cccnc3)cs2)c1` [compound 683, N-(3-(octyloxy)phenyl)-4-(pyridin-3-yl)thiazol-2-amine]: below 1 µM; for `CCCCCCCCN(C)c1ncc(Nc2nc(-c3cccnc3)cs2)cc1C(F)(F)F` [compound 684, 3-(trifluoromethyl)-N^2-methyl-N^2-octyl-N^5-(4-(pyridin-3-yl)thiazol-2-yl)pyridine-2,5-diamine]: above 10 µM.
In the case of `CCCCCCCCOc1ccc(Nc2nc(-c3ccc(N)nc3)cs2)cc1` [compound 685, 5-(2-(4-(octyloxy)phenylamino)thiazol-4-yl)pyridin-2-amine], the EC50 was below 1 µM.
The same measure for `CCCCCCCCOc1ccc(Nc2nc(-c3cnc(NC(C)=O)c(C)c3)cs2)cc1C(F)(F)F` [compound 686, N-(5-(2-(3-(trifluoromethyl)-4-(octyloxy)phenylamino)thiazol-4-yl)-3-methylpyridin-2-yl)acetamide]: below 1 µM.
On to `CCCCCCCCOc1ccc(Nc2nc(-c3cnc(N)c(C)c3)cs2)cc1C(F)(F)F` [compound 687, 5-(2-(3-(trifluoromethyl)-4-(octyloxy)phenylamino)thiazol-4-yl)-3-methylpyridin-2-amine], for which the EC50 is below 1 µM.
Consider `CCCCCCCCOc1ccc(Nc2nc(-c3cnc(NC(C)=O)c(C)c3)cs2)cc1` [compound 688, N-(5-(2-(4-(octyloxy)phenylamino)thiazol-4-yl)-3-methylpyridin-2-yl)acetamide], for which the EC50 is 1 to 10 µM.
For the compound `CCCCCCCCN(C)c1ccc(Nc2nc(-c3cnc(OC)nc3)cs2)cc1C(F)(F)F` [compound 689, 2-(trifluoromethyl)-N^4-(4-(2-methoxypyrimidin-5-yl)thiazol-2-yl)-N^1-methyl-N-octylbenzene-1,4-diamine], the EC50 was below 1 µM.
Turning to `CC(C)=CCC/C(C)=C/COc1ccc(Nc2nc(-c3cccnc3)cs2)cc1C(F)(F)F` [compound 690, N-(4-((E)-3,7-dimethylocta-2,6-dienyloxy)-3-(trifluoromethyl)phenyl)-4-(pyridin-3-yl)thiazol-2-amine], the EC50 was below 1 µM.
As for `CC(C)CCCC(C)CCOc1ccc(Nc2nc(-c3cccnc3)cs2)cc1C(F)(F)F` (stereo not shown) [compound 691, N-(4-(3,7-dimethyloctyloxy)-3-(trifluoromethyl)phenyl)-4-(pyridin-3-yl)thiazol-2-amine], the figure is below 1 µM; as for `CCCCCCCCSc1ccc(Nc2nc(-c3cccnc3)cs2)cc1C(F)(F)F` [compound 692, N-(3-(trifluoromethyl)-4-(octylthio)phenyl)-4-(pyridin-3-yl)thiazol-2-amine], below 1 µM.
The same measure for `FC(F)(F)c1cc(Nc2nc(-c3cccnc3)cs2)ccc1OCCCN1CCOCC1` [compound 693, N-(4-(3-morpholinopropoxy)-3-(trifluoromethyl)phenyl)-4-(pyridin-3-yl)thiazol-2-amine]: 1 to 10 µM; for `CN1CCN(CCCOc2ccc(Nc3nc(-c4cccnc4)cs3)cc2C(F)(F)F)CC1` [compound 694, N-(4-(3-(4-methylpiperazin-1-yl)propoxy)-3-(trifluoromethyl)phenyl)-4-(pyridin-3-yl)thiazol-2-amine]: 1 to 10 µM; for `CN(C)CCCOc1ccc(Nc2nc(-c3cccnc3)cs2)cc1C(F)(F)F` [compound 695, N-(4-(3-(dimethylamino)propoxy)-3-(trifluoromethyl)phenyl)-4-(pyridin-3-yl)thiazol-2-amine]: 1 to 10 µM.
Consider `FC(F)(F)c1cc(Nc2nc(-c3cccnc3)cs2)ccc1OCCCN1CCCC1` [compound 696, N-(4-(3-(pyrrolidin-1-yl)propoxy)-3-(trifluoromethyl)phenyl)-4-(pyridin-3-yl)thiazol-2-amine], for which the EC50 is 1 to 10 µM.
`CCCCCCCCOC(=O)c1ccc(Nc2nc(-c3cccnc3)cs2)cc1C(F)(F)F` [compound 697, octyl 4-(4-(pyridin-3-yl)thiazol-2-ylamino)-2-(trifluoromethyl)benzoate]: the EC50 is below 1 µM.
Turning to `FC(F)(F)c1cc(Nc2nc(-c3cccnc3)cs2)ccc1N1CCC2CCCCC2C1` (stereo not shown) [compound 698, N-(3-(trifluoromethyl)-4-(octahydroisoquinolin-2(1H)-yl)phenyl)-4-(pyridin-3-yl)thiazol-2-amine], the EC50 is below 1 µM.
The same measure for `O=C(c1ccc(Nc2nc(-c3ccc(F)cc3)cs2)cc1C(F)(F)F)N1CCC2CCCCC2C1` (stereo not shown) [compound 699, (4-(4-(4-fluorophenyl)thiazol-2-ylamino)-2-(trifluoromethyl)phenyl)(octahy-droisoquinolin-2(1H)-yl)methanone]: above 10 µM.
As for `CCCCCCCCOC(=O)c1ccc(Nc2nc(-c3ccc(F)cc3)cs2)cc1C(F)(F)F` [compound 700, octyl 4-(4-(4-fluorophenyl)thiazol-2-ylamino)-2-(trifluoromethyl)benzoate], the figure is below 1 µM; as for `CCCCCCCCOc1ccc(Nc2nc(-c3ccc4ncccc4n3)cs2)cc1C(F)(F)F` [compound 701, 4-(6-deuterated-1,5-naphthyndin-2-yl)-N-(4-(octyloxy)-3-(trifluoromethyl)phenyl)thiazol-2-amine], below 1 µM.
As for `CCCCCCCCOc1ccc(Nc2nc(-c3cncnc3-c3ccccc3)cs2)cc1C(F)(F)F` [compound 702, N-(3-(trifluoromethyl)-4-(octyloxy)phenyl)-4-(4-phenylpyrimidin-5-yl)thiazol-2-amine], the EC50 is below 1 µM.
The same measure for `CCCCCCCCOc1ccc(Nc2nc(-c3ccc(C#N)o3)cs2)cc1C(F)(F)F` [compound 703, 5-(2-(3-(trifluoromethyl)-4-(octyloxy)phenylamino)thiazol-4-yl)furan-2-carbonitrile]: below 1 µM; for `CCCCCCCCOc1ccc(Nc2nc(-c3ccc4oc(CO)cc4c3)cs2)cc1C(F)(F)F` [compound 704, (5-(2-(3-(trifluoromethyl)-4-(octyloxy)phenylamino)thiazol-4-yl)benzofuran-2-yl)methanol]: below 1 µM; for `CCCCCCCCOc1ccc(Nc2nc(-c3cccc(OC)n3)cs2)cc1C(F)(F)F` [compound 705, N-(3-(trifluoromethyl)-4-(octyloxy)phenyl)-4-(6-methoxypyridin-2-yl)thiazol-2-amine]: below 1 µM.
`CCCCCCCCOc1ccc(Nc2nc(-c3ccc4c(c3)OCO4)cs2)cc1C(F)(F)F` [compound 706, 4-(benzo[d][1,3]dioxol-5-yl)-N-(3-(trifluoromethyl)-4-(octyloxy)phenyl)thiazol-2-amine]: the EC50 is below 1 µM.
With `CCCCCCCCOc1ccc(Nc2nc(-c3ccc4cc(OC)ccc4c3)cs2)cc1C(F)(F)F` [compound 707, N-(3-(trifluoromethyl)-4-(octyloxy)phenyl)-4-(2-methoxynaphthalen-6-yl)thiazol-2-amine], the EC50 was below 1 µM.
`CCCCCCCCOc1ccc(Nc2nc(-c3cccc4cccnc34)cs2)cc1C(F)(F)F` [compound 708, N-(3-(trifluoromethyl)-4-(octyloxy)phenyl)-4-(quinolin-8-yl)thiazol-2-amine]: the EC50 is below 1 µM.
Regarding `CCCCCCCCOc1ccc(Nc2nc(-c3ccc(C(F)(F)F)cn3)cs2)cc1C(F)(F)F` [compound 709, N-(3-(trifluoromethyl)-4-(octyloxy)phenyl)-4-(5-(trifluoromethyl)pyridin-2-yl)thiazol-2-amine], the EC50 is below 1 µM.
